Data from ChEMBL document CHEMBL6121063, “Identification of a Potent and Selective CDK9 Degrader as a Targeted Therapeutic Option for the Treatment of Small-Cell Lung Cancer” (J Med Chem, 2025).

Columns and labels:
NCI-H446 = test: Antiproliferative activity against human NCI-H446 cells assessed as inhibition of cell growth incubated for 72 hrs by CCK8 assay; assay type: functional, cell-based; details: NCI-H446, 72 h
[1] = molecular target: T1, Protein cereblon/Cyclin-dependent kinase 9 (Homo sapiens, UniProt P50750+Q96SW2); test: PROTAC activity at CRBN/CDK9 in human NCI-H446 cells assessed as induction of CDK9 degradation at 10 nM by Western blot analysis relative to control; assay type: cell-based
T1 sequence (P50750 whole entry, looked up): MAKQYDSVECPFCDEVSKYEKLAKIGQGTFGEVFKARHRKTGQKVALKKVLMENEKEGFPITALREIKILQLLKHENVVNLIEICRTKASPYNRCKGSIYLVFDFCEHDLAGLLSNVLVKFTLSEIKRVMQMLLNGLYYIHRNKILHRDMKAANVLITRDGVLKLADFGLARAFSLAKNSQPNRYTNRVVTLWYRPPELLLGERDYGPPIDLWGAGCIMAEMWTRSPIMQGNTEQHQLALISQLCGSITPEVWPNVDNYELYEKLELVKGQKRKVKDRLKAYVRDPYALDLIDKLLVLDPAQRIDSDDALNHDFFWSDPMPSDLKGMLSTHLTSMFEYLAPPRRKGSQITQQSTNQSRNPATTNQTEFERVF
T1 sequence (Q96SW2 whole entry, looked up): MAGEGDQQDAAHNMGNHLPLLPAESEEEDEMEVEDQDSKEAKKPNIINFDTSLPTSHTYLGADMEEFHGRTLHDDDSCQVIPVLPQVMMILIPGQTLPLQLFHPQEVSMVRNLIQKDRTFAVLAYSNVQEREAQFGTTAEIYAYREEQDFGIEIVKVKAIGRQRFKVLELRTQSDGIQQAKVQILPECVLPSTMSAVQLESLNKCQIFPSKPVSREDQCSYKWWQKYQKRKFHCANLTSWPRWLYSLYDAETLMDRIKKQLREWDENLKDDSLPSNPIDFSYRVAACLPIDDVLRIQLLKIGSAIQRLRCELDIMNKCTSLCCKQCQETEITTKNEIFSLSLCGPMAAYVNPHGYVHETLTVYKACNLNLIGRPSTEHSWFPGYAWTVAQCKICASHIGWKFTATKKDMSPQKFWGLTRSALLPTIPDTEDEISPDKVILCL

[2] = molecular target: T1, Protein cereblon/Cyclin-dependent kinase 9; test: PROTAC activity at CRBN/CDK9 in human NCI-H69 cells assessed as induction of CDK9 degradation at 10 nM by Western blot analysis relative to control; assay type: cell-based
NCI-H69 = test: Antiproliferative activity against human NCI-H69 cells assessed as inhibition of cell growth incubated for 72 hrs by CCK8 assay; assay type: functional, cell-based; details: NCI-H69, 72 h

Row | SMILES | IC50 (NCI-H446) | Activity [1] | Activity [2] | IC50 (NCI-H69)
1 | O=C1CCC(N2C(=O)c3cccc(NCCCCCCC(=O)N4CCC(NC(=O)c5n[nH]cc5NC(=O)c5c(Cl)cccc5Cl)CC4)c3C2=O)C(=O)N1 (centres undefined) | > 1000 nM | 11.2% | 0.132% | > 1000 nM
2 | O=C1CCC(N2C(=O)c3cccc(NCCCCCN4CCC(NC(=O)c5n[nH]cc5NC(=O)c5c(Cl)cccc5Cl)CC4)c3C2=O)C(=O)N1 (centres undefined) | 136 nM | 12.8% | 8.01% | 217 nM
3 | O=C1CCC(N2C(=O)c3cccc(NCCCCCCCN4CCC(NC(=O)c5n[nH]cc5NC(=O)c5c(Cl)cccc5Cl)CC4)c3C2=O)C(=O)N1 (centres undefined) | 62.9 nM | 21.3% | 10.6% | 179 nM
4 | O=C(CNc1cccc2c1C(=O)N(C1CCC(=O)NC1=O)C2=O)NCCCCCCCCCCC(=O)N1CCC(NC(=O)c2n[nH]cc2NC(=O)c2c(Cl)cccc2Cl)CC1 (centres undefined) | 148 nM | 27.9% | 21.8% | 161 nM
5 | O=C1CCC(N2C(=O)c3cccc(NCCCCCCN4CCC(NC(=O)c5n[nH]cc5NC(=O)c5c(Cl)cccc5Cl)CC4)c3C2=O)C(=O)N1 (centres undefined) | 54.2 nM | 39.4% | 34% | 95.3 nM
6 | O=C1CCC(N2C(=O)c3ccc(N4CCN(CC(=O)N5CCC(NC(=O)c6n[nH]cc6NC(=O)c6c(Cl)cccc6Cl)CC5)CC4)cc3C2=O)C(=O)N1 (centres undefined) | 349 nM | 30.9% | 45.5% | 726 nM
7 | O=C1CCC(N2C(=O)c3ccc(N4CCC(OC(=O)CN5CCC(NC(=O)c6n[nH]cc6NC(=O)c6c(Cl)cccc6Cl)CC5)CC4)cc3C2=O)C(=O)N1 (centres undefined) | > 1000 nM | 18.6% | 25.2% | 268 nM
8 | CN1C(=O)CCC(Nc2cccc(N3CCN(CC4CCN(CC(=O)N5CCC(NC(=O)c6n[nH]cc6NC(=O)c6c(Cl)cccc6Cl)CC5)CC4)CC3)c2)C1=O (centres undefined) | 592 nM | 3.15% | 12.3% | 501 nM
9 | O=C1CCC(Nc2ccc(N3CCN(CC4CCN(CC(=O)N5CCC(NC(=O)c6n[nH]cc6NC(=O)c6c(Cl)cccc6Cl)CC5)CC4)CC3)c(F)c2)C(=O)N1 (centres undefined) | 56.1 nM | 79.3% | 66.1% | 44.2 nM
10 | O=C1CCC(N2C(=O)c3ccc(N4CCN(C(=O)CN5CCC(CN6CCC(NC(=O)c7n[nH]cc7NC(=O)c7c(Cl)cccc7Cl)CC6)CC5)CC4)cc3C2=O)C(=O)N1 (centres undefined) | 18.1 nM | 49.9% | 51.5% | 5.75 nM
11 | O=C1CCC(N2C(=O)c3cccc(NCCCCC(=O)N4CCC(NC(=O)c5n[nH]cc5NC(=O)c5c(Cl)cccc5Cl)CC4)c3C2=O)C(=O)N1 (centres undefined) | 772 nM | 9.92% | 3.91% | > 1000 nM
12 | O=C1CCC(N2C(=O)c3ccc(N4CCN(C(=O)CCCC(=O)N5CCC(NC(=O)c6n[nH]cc6NC(=O)c6c(Cl)cccc6Cl)CC5)CC4)cc3C2=O)C(=O)N1 (centres undefined) | 352 nM | 3.22% | 3.8% | 261 nM
13 | O=C1CCC(N2C(=O)c3ccc(N4CCN(C(=O)CCC(=O)N5CCC(NC(=O)c6n[nH]cc6NC(=O)c6c(Cl)cccc6Cl)CC5)CC4)cc3C2=O)C(=O)N1 (centres undefined) | 31.7 nM | 31.8% | 39.1% | 42.5 nM
14 | O=C1CCC(N2C(=O)c3cccc(NCCCCCC(=O)N4CCC(NC(=O)c5n[nH]cc5NC(=O)c5c(Cl)cccc5Cl)CC4)c3C2=O)C(=O)N1 (centres undefined) | > 1000 nM | 27.1% | 17.1% | > 1000 nM
15 | O=C1CCC(N2C(=O)c3ccc(N4CC5CN(CC(=O)N6CCC(NC(=O)c7n[nH]cc7NC(=O)c7c(Cl)cccc7Cl)CC6)CC5C4)cc3C2=O)C(=O)N1 (centres undefined) | 156 nM | 38.9% | 49.4% | 142 nM
16 | O=C1CCC(N2C(=O)c3ccc(N4CCN(C(=O)CN5CCC(NC(=O)c6n[nH]cc6NC(=O)c6c(Cl)cccc6Cl)CC5)CC4)cc3C2=O)C(=O)N1 (centres undefined) | 17.9 nM | 51.9% | 44.2% | 53.8 nM
